# In patent US5962415A, “Compositions comprising a peptide inhibitor of nuclear protein translocation and an immunosuppressant and methods of use thereof” (Bristol-Myers Squibb Co., priority 1998, dated 1999):
# Where a SMILES comes first, the peptide text is derived from it. Where no end group is shown, it is not given here. [ ]: non-standard residue; d: D form.
# How the values were obtained:
# [1] = test system: CD14; assay: LPS binding to CD14 (plate assay with soluble CD14 Ig); conditions: E. coli AO16 LPS, 2 hours at 4° C., FIG. 14
# Method: 96-well plates were coated with goat-anti human Ig, soluble CD-1 4 Ig was added, and the plates were incubated overnight at 4° C. The BMS polypeptide, the C-MYCMEM polypeptide, an SV40 NLS polypeptide containing a single SV40 large T-antigen NLS, a c-myc NLS without a translocation sequence (AKRVKL (SEQ ID NO:6)), a control non-NLS polypeptide, 377G, or PBS, were added to the plates and the plates were incubated for 5 min. E. coli AO16 LPS was then added to the plates and the plates were incubated for 2 hours at 4° C. The plates were washed and LPS was detected using 0.5 μg/ml mouse anti-E. coli LPS, followed by goat anti-mouse horseradish peroxidase.
# [2] = test system: HIVLAI in Jurkat cells; assay: Nuclear translocation of HIV genome in Jurkat cells infected with HIVLAI (gag and 2-LTR circle PCR); type: cell-based, HIV-1; conditions: SV40MEM 0.1 and 1.0 μM, NF-κBMEM 10 μM, 24 hr
# Method: (§1) HIV-1 M1 p24 levels were assayed using the procedures described in Smithgall et al (1995) AIDS Res. and Human Retrovirus 11:885. Proviral DNA content (gag) was measured using polymerase chain reaction analysis as described in Smithgall et al. (1995), supra.
# 2-LTR circles, a strictly nuclear form of HIV-1 DNA the expression of which indicates nuclear localization of the viral genome, was measured by as described in Bukrinsky et al (1991) Science 254:423.
# Jurkat cells were incubated with the SV40MEM polypeptide for 3 hr with HIVLAI for 1-2 hr. The virus was washed out and the cultures supplemented with the appropriate inhibitor (SV40MEM, 0.1,μM and 1.0 μM; NF-κBMEM, 10 μM). After 24 hr, the cells were collected, lysed and evaluated for HIV-1 DNA by polymerase chain reaction analysis of gag sequences (see FIG. 8A) and 2-LTR circles (see FIG. 8B).
# [3] = test system: THP-1 human monocytic cells; assay: LPS-stimulated cytokine (TNF-α, IL-8) production in THP-1 cells; type: cell-based; conditions: 5 μM, 5 hr LPS stimulation, FIG. 4A
# Method: Amounts of TNF-α, IL-6, IL-8 and IL-10 were determined using the ELISA kits obtained from Genzyme following the manufacturer's instructions.
# THP-1 control cells were harvested, washed and set up in RPMI 1640, 10% fetal calf serum, at a concentration of 2.56×10^6 cells/ml. Phosphate buffered saline ("PBS") or one of the two respective polypeptides SV40MEM or SV40 (a peptide having only the SV40 large T antigen NLS sequence) were added to the cells at a concentration of 10 μM or 20 μM. The cells were then plated into a 96-well plate with 0.1 ml/well. The plate was then incubated for 2 hr at 37° C. in a 5% CO2 atmosphere. Following the initial incubation, media or a titration of LPS was added to each of the wells in a volume of 0.1 ml. Thus, the final concentrations of polypeptides were 5 μM or 10 μM. Following 5 hr of LPS stimulation, supernatants were taken and TNF-α and IL-8 levels were determined by ELISA. In addition, cells treated with PBS or polypeptides, but not incubated with LPS, were removed at the time of supernatant removal to determine the viability of the cells following 7 hr of contact with the polypeptides.
# This experiment was conducted to compare the inhibitory effect of the SV40MEM polypeptide and other inhibitory polypeptides on LPS induction of cytokine production. THP-1 control cells (ATCC 9/95 stock) were harvested, washed and set up in RPMI 1640, 10% fetal calf serum as described in Example 2. The cells were incubated for 2 hr with PBS or (1) the FGF signal sequence, (2) a polypeptide having the FGF signal sequence and the NLS of NF-κB p50 on the carboxy terminus of the signal sequence, (3) the SV40MEM polypeptide comprised of L-amino acids, or (4) the SV40MEM polypeptide comprised of D-amino acids at a final concentration of 5 μM. The cells were then plated into a 96-well plate with 0.1 ml/well. The plate was then incubated for 2 hr at 37° C. in a 5% CO2 atmosphere. Following the initial incubation, media or a titration of LPS was added to each of the wells in a volume of 0.01 ml/well. Following 5 hr of LPS stimulation, supernatants were taken and TNF-α levels were determined by ELISA.
# [4] = test system: HIV-M1 virus in Jurkat human leukemia T-cells; assay: Infection of Jurkat T-cells with HIV-M1 virus (PCR of HIV-1 DNA); type: cell-based; conditions: 2 μM, 4 hr preincubation, day 3, FIG. 7
# Method: as §1
# (§2) H9 and Jurkat cells were incubated with the HIV-1MEM polypeptide (2,μM) or the control MEM peptide for 4 hr prior to addition of HIV-M1 virus. Cells were harvested on day 3 following injection and the level of HIV-1 DNA evaluated by polymerase chain reaction.
# [5] = test system: HIV-M1 virus in H9 human lymphoma T-cells; assay: Infection of H9 T-cells with HIV-M1 virus (PCR of HIV-1 DNA); type: cell-based; conditions: 2 μM, 4 hr preincubation, day 3, FIG. 7
# Method: as §1, §2
# [6] = test system: 70Z/3 murine leukemia pre-B cells; assay: LPS-stimulated surface antigen expression (κ Ig light chain, IL-2 receptor, CD45) in 70Z/3 cells; type: cell-based; conditions: for potency and efficacy of L- versus D-amino acid form, LPS-stimulated κ Ig expression: FIG. 3
# Method: Expression of κ Ig, CD45, CD40, and the interleukin-2 receptor was assayed using standard enzyme-linked immunosorbent assays ("ELISAs") (see, Coligan et al. (eds.) (1991) Current Protocols in Immunology, Wiley & Sons, p. 2.10 or by FACS staining to measure cell-surface markers as described in Raff (1970) Immunology 19:637). Antibodies form cell surface markers were obtained from Pharmingen Co.
# The effect of the SV40MEM polypeptide was compared with two additional polypeptides, […] (SEQ ID NO:2) (the "HIV-1MEM" polypeptide), which is composed of the membrane translocation domain of FGF flanked by the NLS from the HIV-1 matrix protein and […] (SEQ ID NO:3) (the "C-MYCMEM" polypeptide), which contains the NLS from the human c-myc oncoprotein (Chelsky et al. (1989), supra, and Dang et al. (1988), supra) using murine 70Z/3 pre-B cells.
# Murine 70Z/3 cells (ATCC TlD-158) are a model cell line for analyzing the effects of compounds on B-cell differentiation. In response to S. typhosa LPS (Difco) or γ-interferon, these cells differentiate from surface κ immunoglobulin negative to κ Ig positive.
# […] of: (1) a peptide containing only the FGF signal sequence AAVALLPAVLLALLAP (SEQ ID NO:4) (the "MEM" peptide); (2) a polypeptide having the FGF signal sequence and the NLS of NF-κB p50 on the carboxy terminus of the signal sequence, namely, the NF-κBMEM polypeptide; (3) the SV40MEM polypeptide comprised of L-amino acids; or (4) the SV40MEM polypeptide comprised of D-amino acids. The cells were then incubated with LPS as described in Example 2 and assayed for expression of κ light chain expression.
# [7] = test system: HIV-1 primary isolate M1; assay: Infection of anti-CD3 activated PBMCs with HIV-1 primary isolate M1; type: cell-based; conditions: seven days, compared to untreated but activated cultures
# Method: as §1
# PBMCs were obtained washed, cultured, and infected with HIV-1 as described in Dubrovsky et al. (1995) Mol. Med. 1:217-230). PBMCs from a seronegative donor were collected and depleted of CD8^+ T cells by negative selection. The cells were activated with an anti-CD3 monoclonal antibody prepared according to the method described in Wee et al. (1993) J. Exp. Med. 177:219 and incubated for 3 hr with the HIV-1MEM polypeptide. The cells were then incubated with M1 virus isolated from PBMC collected from HIV-infected donors in the presence of inhibitors for 2 hr. The virus was washed out, and the cultures supplemented with the appropriate inhibitor and allowed to incubate for seven days. Virus production was determined by measuring the p24 levels in the culture supernatant (FIG. 6B) and contrasted with the effect of the polypeptide on cell proliferation (FIG. 6A), which virus load was determined by polymerase chain reaction analysis of proviral DNA content (gag) (FIG. 6C). The MEM peptide represents the FGF membrane translocating portion of the HIV-1MEM polypeptide.
# [8] = test system: Murine 70Z/3 B-cells; assay: Proliferation of 70Z/3 murine B-cell leukemia cells; type: cell-based; conditions: 0.2 μM (lowest concentration), 48 hr, FIG. 9
# Method: Murine 70Z/3 B-cells were treated with 0, 0.2, 0.5, 1, or 2 μM […] prepared from D-amino acids. On day 0, the cell concentrations of the control and treated cells were the same. After 48 hr of exposure to the peptide, the treated cells were again counted and compared to control cells.
# [9] = test system: Human RAJI B-cells; assay: Proliferation of RAJI human B-cell leukemia cells; type: cell-based; conditions: 5 μM (lowest concentration), 48 hr, FIG. 10
# Method: Human RAJI B-cells were treated with 0, 5, 10 or 25 μM SV40MEM prepared from D-amino acids. On day 0, the cell concentrations of the control and treated cells were the same. After 48 hr of exposure to the peptide, the treated cells were again counted and compared to control cells.
compound,measurement,setting,value
"AKRVKL [c-myc NLS, reference compound]",binding of LPS to CD14,[1],did not block binding
CSCC[C@H](NC(=O)[C@H](CC(C)C)NC(=O)[C@H](CCCCN)NC(=O)[C@H](CCC(N)=O)NC(=O)[C@H](CCCNC(=N)N)NC(=O)[C@H](CCCCN)NC(=O)[C@H](CCCNC(=N)N)NC(=O)[C@H](CCC(N)=O)NC(=O)[C@@H](NC(=O)[C@@H]1CCCN1C(=O)[C@H](C)NC(=O)[C@H](CC(C)C)NC(=O)[C@H](CC(C)C)NC(=O)[C@H](C)NC(=O)[C@H](CC(C)C)NC(=O)[C@H](CC(C)C)NC(=O)[C@@H](NC(=O)[C@H](C)NC(=O)[C@@H]1CCCN1C(=O)[C@H](CC(C)C)NC(=O)[C@H](CC(C)C)NC(=O)[C@H](C)NC(=O)[C@@H](NC(=O)[C@H](C)NC(=O)[C@H](C)N)C(C)C)C(C)C)C(C)C)C(=O)N1CCC[C@H]1C(N)=O [NF-κBMEM],viral internalization / virus entry (gag sequences),[2]; FIG. 8A,no effect
same,translocation of the viral genome into the nucleus (2-LTR circles),[2]; FIG. 8B,no effect
same,LPS-induced TNF-α expression,[3],did not significantly inhibit
"KKKYKAAVALLPAVLLALLAKKKYKC [HIV-1MEM, membrane translocation domain of FGF flanked by the NLS from the HIV-1 matrix protein]",infection (level of HIV-1 DNA by PCR),[4],inhibited infection
same,infection (level of HIV-1 DNA by PCR),[5],inhibited infection
same,efficacy at inhibiting κ Ig light chain production (comparison of three polypeptides),"[6]; dose-response data, FIG. 1B",approximately equally efficacious
same,potency at inhibiting κ Ig light chain production compared with SV40MEM,"[6]; dose-response data, FIG. 1B",not as potent
same,virus production (p24 levels in culture supernatant),[7]; FIG. 6B,significantly reduced
same,"virus load (PCR of proviral DNA content, gag)",[7]; FIG. 6C,significantly reduced
CC(C)C[C@@H](NC(=O)[C@@H](C)NC(=O)[C@@H](CC(C)C)NC(=O)[C@@H](CC(C)C)NC(=O)[C@H](NC(=O)[C@@H](C)NC(=O)[C@H]1CCCN1C(=O)[C@@H](CC(C)C)NC(=O)[C@@H](CC(C)C)NC(=O)[C@@H](C)NC(=O)[C@H](NC(=O)[C@@H](C)NC(=O)[C@@H](C)NC(=O)[C@H](NC(=O)[C@@H](CCCCN)NC(=O)[C@@H](CCCNC(=N)N)NC(=O)[C@@H](CCCCN)NC(=O)[C@@H](CCCCN)NC(=O)[C@@H](CCCCN)NC(=O)[C@H]1CCCN1)C(C)C)C(C)C)C(C)C)C(=O)N[C@H](CC(C)C)C(=O)N[C@H](C)C(=O)N1CCC[C@@H]1C(=O)N[C@H](CCCCN)C(=O)N[C@H](CCCCN)C(=O)N[C@H](CCCCN)C(=O)N[C@H](CCCNC(=N)N)C(=O)N[C@H](CCCCN)C(=O)N[C@@H](C(=O)N[C@H](CS)C(N)=O)C(C)C [SV40MEM (D-amino acid form)] (H-[dP][dK][dK][dK][dR][dK][dV][dA][dA][dV][dA][dL][dL][dP][dA][dV][dL][dL][dA][dL][dL][dA][dP][dK][dK][dK][dR][dK][dV][dC]-NH2; N-terminus and C-terminus assumed),proliferation (cell count versus control),[8],inhibited
same,LPS-induced TNF-α expression,[3],significantly inhibited
same,proliferation (cell count versus control),[9],inhibited
same,"potency and efficacy of L- versus D-amino acid form, LPS-stimulated κ Ig expression",[6],equally potent and efficacious
same,efficacy at inhibiting κ Ig light chain production (comparison of three polypeptides),"[6]; dose-response data, FIG. 1B",approximately equally efficacious
PKKKRKVAAVALLPAVLLALLAPKKKRKVC-NH2 (C-terminus assumed) [SV40MEM (L-amino acid form)],LPS-induced TNF-α expression,[3],significantly inhibited
same,"potency and efficacy of L- versus D-amino acid form, LPS-stimulated κ Ig expression",[6],equally potent and efficacious
